According to the NIST ThermoML archive (doi:10.1016/j.jct.2008.11.012):

Tests used:
[1] = 101 kPa, Liquid; for viscosity: Concentric cylinders viscometry; for mass density: Vibrating tube method
[2] = xn = mol fraction of the nth substance listed; settings: 101 kPa, Liquid, x2 = 0; for viscosity: Concentric cylinders viscometry; for mass density: Vibrating tube method

NCCNCCN [di(2-aminoethyl)amine]
[1]
Settings	mass density [kg/m3]	viscosity [mPa·s]
293.15 K	951	7.038
303.15 K	942.3	4.804
313.15 K	933.8	3.4
323.15 K	925.5	2.695
333.15 K	917	2.109
343.15 K	908.9	1.703
353.15 K	900.4	1.409
363.15 K	891.9	1.19

O [water]
[1]
Settings	mass density [kg/m3]	viscosity [mPa·s]
293.15 K	999.2	1.006
303.15 K	996.5	0.7988
313.15 K	993	0.6546
323.15 K	988.7	0.5427
333.15 K	983.7	0.4596
343.15 K	978.3	0.4271
353.15 K	972.3	0.3731
363.15 K	965.9	0.2983

O [water] + NCCNCCN
[2]
Settings	mass density [kg/m3]	viscosity [mPa·s]
293.15 K	999.2	1.006
303.15 K	996.5	0.7988
313.15 K	993	0.6546
323.15 K	988.7	0.5427
333.15 K	983.7	0.4596
343.15 K	978.3	0.4271
353.15 K	972.3	0.3731
363.15 K	965.9	0.2983
